BindingDB's records for patent US20260022122 (Checkmate Therapeutics, 2026)

The molecules below were run against Nicotinamide phosphoribosyltransferase (Homo sapiens, UniProt P43490) (assay: Measurement of NamPT Inhibitory Ability IC50).
Description: To test the effect of the compound prepared in each Example on the substrate decomposition rate (Vmax/min) mediated by NamPT enzyme, IC50 was calculated. In this experiment, the NamPT colorimetric assay kit (ab221819) produced by Abcam was used, and Graph prism software was used for IC50 calculation. PRPP, ATP, NMNAT1, NamPT recombinant proteins, and various concentrations of the compound of each Example (half-log step dilution from 100 μM) were added to nicotinamide to synthesize nicotinamide adenine dinucleotide (NAD) from the nicotinamide, and a total of 60 μL of the reaction solution was reacted at room temperature for 1 hour. WST-1 formazan converted by NAD generated by adding WST-1 was measured. The result of the reaction was obtained by the following formula by measuring absorbance using EnVision2105 (PerkinElmer) at 450 nm for 60 minutes at 2-minute intervals.

Nicotinamide phosphoribosyltransferase, sequence (P43490 whole entry): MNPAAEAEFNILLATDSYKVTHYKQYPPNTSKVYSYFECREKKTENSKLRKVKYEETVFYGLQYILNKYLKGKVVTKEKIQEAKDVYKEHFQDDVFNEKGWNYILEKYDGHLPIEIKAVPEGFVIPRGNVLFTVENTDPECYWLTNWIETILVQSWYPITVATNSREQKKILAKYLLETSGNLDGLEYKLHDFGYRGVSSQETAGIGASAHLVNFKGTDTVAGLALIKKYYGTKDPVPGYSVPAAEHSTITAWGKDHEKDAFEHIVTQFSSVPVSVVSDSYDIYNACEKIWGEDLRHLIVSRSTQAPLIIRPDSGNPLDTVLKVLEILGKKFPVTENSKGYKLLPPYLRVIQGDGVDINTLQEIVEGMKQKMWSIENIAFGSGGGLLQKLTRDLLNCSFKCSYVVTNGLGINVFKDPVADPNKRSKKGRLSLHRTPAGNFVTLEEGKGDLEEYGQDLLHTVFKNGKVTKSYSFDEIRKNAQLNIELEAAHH

Compound	IC50 [nM]
Cc1ccc2sc(-c3ccc(CNC(=O)c4cnc5nccn5c4)cc3)nc2c1 [US20260022122, Example 48]	< 50
CC(C)c1ccc2nc(-c3ccc(CNC(=O)c4cnc5nccn5c4)cc3)oc2c1	< 50
CS(=O)(=O)Nc1ccc2oc(-c3ccc(CNC(=O)c4cnc5nccn5c4)cc3)nc2c1 [US20260022122, Example 47]	< 50
